Source: US10745361B2, “Piperazine derivatives having multimodal activity against pain” (ESTEVE PHARMACEUTICALS, S.A., priority 2013, dated 2020)

Target: human σ1 receptor and human μ-opioid receptor
Assay: Human σ1 receptor radioligand assay and human μ-opioid receptor radioligand assay (μ and σ1 dual binding)
Design: key to μ and σ1 dual binding: +: Both Ki-μ and Ki-σ1>=500 nM; ++: One K, <500 nM while the other K, is >=500 nM; +++: Both Ki-μ and Ki-σ1<500 nM; ++++: Both Ki-μ and Ki-σ1<100 nM
Settings: one class for both Ki: σ1 ([3H](+)-pentazocine, transfected HEK-293 membranes) and μ-opioid ([3H]-DAMGO, transfected CHO-K1 membranes)
Experimental: Human σ1 Receptor Radioligand Assay
To investigate binding properties of σ1 receptor ligands to human σ1 receptor, transfected HEK-293 membranes and [^3H](+)-pentazocine (Perkin Elmer, NET-1056), as the radioligand, were used. The assay was carried out with 7 μg of membrane suspension, 5 nM of [^3H](+)-pentazocine in either absence or presence of either buffer or 10 μM Haloperidol for total and non-specific binding, respectively. Binding buffer contained Tris-HCl 50 mM at pH 8. Plates were incubated at 37° C. for 120 minutes. After the incubation period, the reaction mix was then transferred to MultiScreen HTS, FC plates (Millipore), filtered and plates were washed 3 times with ice-cold 10 mM Tris-HCL (pH7.4). Filters were dried and counted at approximately 40% efficiency in a MicroBeta scintillation counter (Perkin-Elmer) using EcoScint liquid scintillation cocktail
Human μ-Opioid Receptor Radioligand Assay
To investigate binding properties of p-opioid receptor ligands to human p-opioid receptor, transfected CHO-K1 cell membranes and [^3H]-DAMGO (Perkin Elmer, ES-542-C), as the radioligand, were used. The assay was carried out with 20 μg of membrane suspension, 1 nM of [^3H]-DAMGO in either absence or presence of either buffer or 10 μM Naloxone for total and non-specific binding, respectively. Binding buffer contained Tris-HCl 50 mM, MgCl2 5 mM at pH 7.4. Plates were incubated at 27° C. for 60 minutes. After the incubation period, the reaction mix was then transferred to MultiScreen HTS, FC plates (Millipore), filtered and plates were washed 3 times with ice-cold 10 mM Tris-HCL (pH 7.4). Filters were dried and counted at approximately 40% efficiency in a MicroBeta scintillation counter (Perkin-Elmer) using
EcoScint liquid scintillation cocktail.
The following scale as been adopted for representing the binding to the σ1 receptor and the μ-opiod receptor expressed as Ki: • + Both Ki-μ and Ki-σ1>=500 nM • ++ One K, <500 nM while the other K, is >=500 nM • +++ Both Ki-μ and Ki-σ1<500 nM • ++++ Both Ki-μ and Ki-σ1<100 nM

SMILES | Ki [nM] | μ and σ1 dual binding
O=S(=O)(Nc1cccc(N2CCN(Cc3cn(-c4ccccc4F)cn3)CC2)n1)C1CC1 [Example 71, N-(6-(4-((1-(2-fluorophenyl)-1H-imidazol-4-yl)methyl)piperazin-1-yl)pyridin-2-yl)cyclopropanesulfonamide] | < 500 | 
Nc1cccc(N2CCN(Cc3cn(-c4ccccc4F)nn3)CC2)n1 [Example 72, 6-(4-((1-(2-fluorophenyl)-1H-1,2,3-triazol-4-yl)methyl)piperazin-1-yl)pyridin-2-amine] |  | ++
O=S(=O)(Nc1cccc(N2CCN(Cc3cn(-c4ccccc4)nn3)CC2)c1)C1CC1 [Example 20, N-(3-(4-((1-phenyl-1H-1,2,3-triazol-4-yl)methyl)piperazin-1-yl)phenyl)cyclopropanesulfonamide] | < 100 | 
CS(=O)(=O)Nc1cccc(N2CCN(Cc3cn(-c4ccccc4)nn3)CC2)n1 [Example 41, N-(6-(4-((1-phenyl-1H-1,2,3-triazol-4-yl)methyl)piperazin-1-yl)pyridin-2-yl)methanesulfonamide] |  | ++
CC(C)S(=O)(=O)Nc1cccc(N2CCN(Cc3cn(Cc4ccccn4)nn3)CC2)c1 [Example 16, N-(3-(4-((1-(pyridin-2-ylmethyl)-1H-1,2,3-triazol-4-yl)methyl)piperazin-1-yl)phenyl)propane-2-sulfonamide] |  | ++
CN(c1cccc(NS(C)(=O)=O)c1)C1CCN(Cc2cn(-c3ccccc3)nn2)C1 (centres unmarked) [Example 14, N-(3-(methyl(1-((1-phenyl-1H-1,2,3-triazol-4-yl)methyl)pyrrolidin-3-yl)amino)phenyl)methanesulfonamide] | < 100 | 
O=S(=O)(Nc1cccc(N2CCN(Cc3cn(-c4ccc(C(F)(F)F)cn4)nn3)CC2)n1)C1CC1 [Example 67, N-(6-(4-((1-(5-(trifluoromethyl)pyridin-2-yl)-1H-1,2,3-triazol-4-yl)methyl)piperazin-1-yl)pyridin-2-yl)cyclopropanesulfonamide] |  | ++
O=S(=O)(Nc1cccc(N2CCN(Cc3cn(-c4ccccc4)nn3)CC2)n1)C1CC1 [Example 51, N-(6-(4-((1-phenyl-1H-1,2,3-triazol-4-yl)methyl)piperazin-1-yl)pyridin-2-yl)cyclopropanesulfonamide] | < 500 | 
CC(C)S(=O)(=O)Nc1cccc(N2CCN(Cc3cn(-c4cncc(Cl)c4)nn3)CC2)n1 [Example 2, N-(6-(4-((1-(5-chloropyridin-3-yl)-1H-1,2,3-triazol-4-yl)methyl)piperazin-1-yl)pyridin-2-yl)propane-2-sulfonamide] |  | ++
CC(C)S(=O)(=O)Nc1cccc(N2CC3CN(Cc4cn(-c5ccccc5)nn4)CC3C2)c1 (centres unmarked) [Example 30, N-(3-(5-((1-phenyl-1H-1,2,3-triazol-4-yl)methyl)hexahydropyrrolo[3,4-c]pyrrol-2(1H)-yl)phenyl)propane-2-sulfonamide] | < 100 | 
Nc1cccc(N2CCN(Cc3cn(-c4ccccc4)nn3)CC2)c1 [Example 31, 3-(4-((1-phenyl-1H-1,2,3-triazol-4-yl)methyl)piperazin-1-yl)aniline] | ≥ 500 | 
CS(=O)(=O)Nc1cccc(N2CCN(Cc3cnn(-c4ccccn4)c3)CC2)c1 [Example 38, N-(3-(4-((1-(pyridin-2-yl)-1H-pyrazol-4-yl)methyl)piperazin-1-yl)phenyl)methanesulfonamide] | < 500 | 
Oc1cccc(N2CCN(Cc3cn(-c4ccccn4)nn3)CC2)c1 [Example 7, 3-(4-((1-(pyridin-2-yl)-1H-1,2,3-triazol-4-yl)methyl)piperazin-1-yl)phenol] |  | ++
CS(=O)(=O)Nc1cccc(N2CCCN(Cc3cn(-c4ccccc4)nn3)CC2)c1 [Example 25, N-(3-(4-((1-phenyl-1H-1,2,3-triazol-4-yl)methyl)-1,4-diazepan-1-yl)phenyl)methanesulfonamide] | < 500 | 
Nc1cccc(N2CCN(Cc3cn(-c4ccccc4)nn3)CC2)n1 [Example 63, 6-(4-((1-phenyl-1H-1,2,3-triazol-4-yl)methyl)piperazin-1-yl)pyridin-2-amine] | ≥ 500 | 
CC(C)S(=O)(=O)Nc1cccc(N2CCCN(Cc3cn(Cc4ccccn4)nn3)CC2)n1 [Example 59, N-(6-(4-((1-(pyridin-2-ylmethyl)-1H-1,2,3-triazol-4-yl)methyl)-1,4-diazepan-1-yl)pyridin-2-yl)propane-2-sulfonamide] |  | ++
CC(C)S(=O)(=O)Nc1cccc(N2CCN(Cc3cnn(-c4ccccn4)c3)CC2)n1 [Example 47, N-(6-(4-((1-(pyridin-2-yl)-1H-pyrazol-4-yl)methyl)piperazin-1-yl)pyridin-2-yl)propane-2-sulfonamide] | < 500 | 
CC(C)S(=O)(=O)Nc1cccc(N2CC3CN(Cc4cn(-c5ccccc5)nn4)CC3C2)n1 (centres unmarked) [Example 53, N-(6-(5-((1-phenyl-1H-1,2,3-triazol-4-yl)methyl)hexahydropyrrolo[3,4-c]pyrrol-2(1H)-yl)pyridin-2-yl)propane-2-sulfonamide] | < 500 | 
CC(C)S(=O)(=O)Nc1cccc(N2CCN(Cc3cn(-c4ccc(Cl)cn4)nn3)CC2)n1 [Example 58, N-(6-(4-((1-(5-chloropyridin-2-yl)-1H-1,2,3-triazol-4-yl)methyl)piperazin-1-yl)pyridin-2-yl)propane-2-sulfonamide] |  | ++
CC(C)S(=O)(=O)Nc1cccc(N2CCN(Cc3cn(-c4ccccc4)nn3)CC2)c1 [Example 1, N-(3-(4-((1-phenyl-1H-1,2,3-triazol-4-yl)methyl)piperazin-1-yl)phenyl)propane-2-sulfonamide] | < 100 | 
CC(C)S(=O)(=O)Nc1cccc(N2CCN(Cc3cn(Cc4ccccc4)cn3)CC2)c1 [Example 40, N-(3-(4-((1-benzyl-1H-imidazol-4-yl)methyl)piperazin-1-yl)phenyl)propane-2-sulfonamide] | < 500 | 
CS(=O)(=O)Nc1cccc(N2CCN(Cc3cn(Cc4ccccc4)nn3)CC2)c1 [Example 3, N-(3-(4-((1-benzyl-1H-1,2,3-triazol-4-yl)methyl)piperazin-1-yl)phenyl)methanesulfonamide] |  | ++
CCC(=O)Nc1cccc(N2CCN(Cc3cn(-c4ccccc4F)nn3)CC2)n1 [Example 45, N-(6-(4-((1-(2-fluorophenyl)-1H-1,2,3-triazol-4-yl)methyl)piperazin-1-yl)pyridin-2-yl)propionamide] |  | ++
CC(C)S(=O)(=O)Nc1cccc(N2CCN(Cc3cnn(-c4ccccc4)c3)CC2)c1 [Example 36, N-(3-(4-((1-phenyl-1H-pyrazol-4-yl)methyl)piperazin-1-yl)phenyl)propane-2-sulfonamide] | < 100 | 
CC(C)S(=O)(=O)Nc1cccc(N2CC3CN(Cc4cn(-c5ccccc5F)nn4)CC3C2)n1 (centres unmarked) [Example 61, N-(6-(5-((1-(2-fluorophenyl)-1H-1,2,3-triazol-4-yl)methyl)hexahydropyrrolo[3,4-c]pyrrol-2(1H)-yl)pyridin-2-yl)propane-2-sulfonamide] |  | ++
CC(C)S(=O)(=O)Nc1cccc(N2CCN(Cc3cnn(-c4ccccn4)c3)CC2)c1 [Example 39, N-(3-(4-((1-(pyridin-2-yl)-1H-pyrazol-4-yl)methyl)piperazin-1-yl)phenyl)propane-2-sulfonamide] | < 100 | 
